The values that follow come from patent US8784899B2, “Compositions and methods for cancer treatment” (priority 2005, dated 2014).

Holding throughout (type): cell-based
The test system of one data set is NB4 cells. As to the kind of experiment: Growth assay, viable cells by trypan blue exclusion, NB4. The note with it: NB4, 100 μM trolox alone, any time point. Here is the method:
NB4, IM9 and AsR2 cells were seeded at 1×10^5 cells/ml in 24-well plates. Cells were treated with various concentrations of As2O3 or doxorubicin, alone or in combination with 100 μM trolox for six days. Viable cells were counted by trypan blue exclusion on day 1, 3 and 6. All cells were maintained at a density lower than 1×10^6 cells/ml through dilution as required, and media +/− treatment was replaced every third day. MCF-7, MDA-231 and T47D were seeded in 24-well plates at a density of 4000 cells/well. The next day, fresh media containing As2O3+/− trolox was added. On the days indicated, cells were fixed in 10% trichloroacetic acid and subsequently stained with sulforhodamine B (SRB). Bound SRB was solubilized in 10 mM unbuffered Tris and optical density was measured at 570 nm in a microplate reader.

For a further data set, the system named is NB4, AsR2 and IM9 cells. As to the kind of experiment: Apoptosis by propidium iodide staining and flow cytometry. Conditions: 48 hours, all concentrations of arsenic tested. Here is the method:
Quantitation of apoptotic cells was performed as previously described (Hardin et al. J. Immunol. Methods. 1992; 154:99-107). Cells were treated, washed in buffer (PBS/5% FBS/0.01 M NaN3) at 4° C., pelleted, and resuspended in 0.5 ml of hypotonic fluorochrome solution containing 50 μg/ml propidium iodide (PI), 0.1% sodium citrate, and 0.1% Triton X-100™. Fluorescence was measured on a Becton-Dickinson™ FACS Calibur. Cells undergoing DNA fragmentation and apoptosis (those in which PI fluorescence was weaker than the typical G0-G1 cell cycle peak) were quantified using CellQUEST™ software.
To evaluate whether the growth inhibitory effect observed upon combined treatment of As2O3 and trolox in NB4, AsR2 and IM9 cells was due to the induction of apoptosis, cells were treated for 48 hours, subsequently stained with PI and analyzed by flow cytometry. […] To confirm an enhanced induction of apoptotic death, FITC-labeled Annexin V, which detects phosphatidylserine residues appearing on the external surface of early apoptotic cells, was used. Consistent with the increase in the subG0 subpopulation after PI staining, trolox augmented the percentage of cells positive for Annexin V (FIG. 2B lower panels). To further confirm the induction of apoptosis by the combination of As2O3 and trolox, we evaluated caspase 3 activation and PARP cleavage. […] Similar results were obtained with AsR2 and IM9 cells.

The next data set relates to Heme oxygenase-1 (HO-1). Kind of data set: HO-1 protein levels by Western blot. Conditions: NB4, IM9 and AsR2 cells, 24 hours. Here is the method:
Cell extracts were washed with cold PBS and resuspended in 0.1 ml lysis buffer (5 mM NaH2PO4, 1 mM DTT, 10% glycerol, 1 mM PMSF, 10 μg/ml each aprotinin and leupeptin, pH 7.4) at 4° C. Extracts were centrifuged at 14,000 rpm at 4° C., and supernatants were transferred to fresh tubes. Protein concentration was determined with the Bio-Rad™ protein assay (Bio-Rad, Mississauga, Ontario, Canada). To detect HO-1 or PARP, 50 μg of protein was added to an equal volume of 2× sample buffer and run on a 10% SDS-polyacrylamide gel. Proteins were transferred to nitrocellulose membranes (Bio-Rad), stained with Ponceau S in 5% acetic acid to ensure equal protein loading, and blocked with 5% milk in PBS containing 0.5% Triton X-100™ for 1 hour at room temperature. The membrane was hybridized overnight at 4° C. with antibody against PARP (1:1000; Oncogene) or 3 hours with an antibody against HO-1 (1:1000; StressGen). Following three washes with PBS and 0.5% Triton X-100™, blots were incubated with a goat anti-rabbit antibody (1:10,000; PharMingen) for one hour at room temperature. Bands were visualized by enhanced chemiluminescence (Amersham Pharmacia Biotech, Baie d'Urfe, Quebec, Canada). Immunostaining for β-actin was used to confirm equal protein loading. Immune complex kinase assays for c-jun kinase activity were performed as previously described (Davison et al. Blood. 2004; 103: 3496-3502).

The next data set concerns Normal human PBMC. Kind of data set: Colony forming unit assay of peripheral blood mononuclear cells. The method, then: Peripheral blood mononuclear cells (PBMC) were obtained from two healthy normal donors after obtaining informed consent and were collected into tubes containing 7.2 mg K2EDTA. The blood was diluted 1:3 in PBS, layered onto an equal volume of Ficoll-Plaque™ PLUS (Amershan Biosciences, Piscataway, N.J.) and centrifuged at 1500 rpm for 30 minutes. The mononuclear cell layer was collected and washed twice in PBS. Methylcellulose media was prepared by combining IMDM, 30% FBS, 1% bovine serum albumin, 10^−4M 2-mercaptoethanol, 2 mM L-glutamine, 0.1U penicillin, 0.1 μg/ml streptomycin, granulocyte-macrophage colony-stimulating factor (GM-CSF; 10 ng/ml), interleukin-3 (IL-3; 10 ng/ml0) and erythropoietin (EPO; 3U/ml). PBMC were seeded in this media at a concentration of 300,000 cells/ml and treated with or without As2O3, trolox or the combination. Cultures were performed in triplicate in 35 mm^2 dishes and incubated at 37° C. in 4% CO2. Colonies derived from […] (BFU-E) and CFU-GM were counted on day 7 and 13.

As to `Cc1c(C)c2c(c(C)c1O)CCC(C)(C(=O)O)O2` (stereo not shown) [trolox, Trolox], the “effect on cell number” value in the data set with NB4 cells is reported as “no effect on cell number”. Further, the “apoptosis (PI staining)” value in the data set with NB4, AsR2 and IM9 cells was “no effect on the apoptotic rate”. For the same compound, the HO-1 protein induction entry in the data set with Heme oxygenase-1 (HO-1) was “not detected”. Further, in the data set on Normal human PBMC, the “colony formation (CFU-GM, BFU-E, CFU-E)” value is “did not inhibit colony formation”.
